According to ChEMBL document CHEMBL3853265 (Medchemcomm, 2016):

How the values were obtained:
[1] = target: T1, Solute carrier family 22 member 12 (Homo sapiens, UniProt Q96S37); assay: Inhibition of human C-terminal eGFP-tagged URAT1 long isoform expressed in CHO cells assessed as decrease in [14C]-uric acid uptake preincubated for 15 mins followed by [14C]-uric acid addition and incubated in dark for 3 hrs by scintillation counting method; assay type: cell-based
T1 sequence (Q96S37 whole entry): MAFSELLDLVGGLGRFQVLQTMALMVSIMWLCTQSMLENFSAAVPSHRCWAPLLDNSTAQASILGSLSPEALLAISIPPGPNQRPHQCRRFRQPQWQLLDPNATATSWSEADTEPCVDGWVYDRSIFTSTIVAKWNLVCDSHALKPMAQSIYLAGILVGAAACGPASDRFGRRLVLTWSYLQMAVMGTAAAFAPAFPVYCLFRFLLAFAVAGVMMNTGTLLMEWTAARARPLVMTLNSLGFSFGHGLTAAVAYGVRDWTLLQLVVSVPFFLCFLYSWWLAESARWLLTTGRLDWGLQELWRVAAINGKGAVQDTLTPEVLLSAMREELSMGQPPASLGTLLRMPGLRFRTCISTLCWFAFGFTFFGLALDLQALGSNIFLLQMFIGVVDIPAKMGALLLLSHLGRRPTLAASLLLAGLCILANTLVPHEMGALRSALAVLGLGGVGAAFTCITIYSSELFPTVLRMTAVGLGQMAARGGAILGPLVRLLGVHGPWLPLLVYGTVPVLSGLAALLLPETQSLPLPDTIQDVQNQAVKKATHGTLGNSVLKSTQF

[2] = Octanol-water partition co-efficient, log D of the compound by shake flask method; assay type: physicochemical
CYP2C9 = CYP2C9 (Homo sapiens, UniProt P11712); assay: Inhibition of CYP2C9 (unknown origin) at 3 uM relative to control; assay type: ADME
Sequence of CYP2C9 (P11712 whole entry): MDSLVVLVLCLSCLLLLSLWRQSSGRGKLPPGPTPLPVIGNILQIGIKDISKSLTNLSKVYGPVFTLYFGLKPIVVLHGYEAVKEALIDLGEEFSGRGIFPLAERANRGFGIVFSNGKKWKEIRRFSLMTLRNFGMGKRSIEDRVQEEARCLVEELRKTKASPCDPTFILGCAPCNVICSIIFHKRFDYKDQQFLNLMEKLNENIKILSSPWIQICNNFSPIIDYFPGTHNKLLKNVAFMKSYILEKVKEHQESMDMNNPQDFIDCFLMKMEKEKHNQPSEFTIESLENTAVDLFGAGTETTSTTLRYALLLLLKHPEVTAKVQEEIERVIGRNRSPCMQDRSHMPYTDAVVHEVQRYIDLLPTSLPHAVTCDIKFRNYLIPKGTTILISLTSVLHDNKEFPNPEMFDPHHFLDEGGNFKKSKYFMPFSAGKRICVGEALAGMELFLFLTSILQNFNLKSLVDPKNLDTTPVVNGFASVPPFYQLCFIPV

[3] = Intrinsic clearance in human liver microsomes; assay type: ADME; conditions: read-out: CLH
[4] = Dissociation constant, pKa of the compound; assay type: physicochemical

Row | IC50 [1] [nM] | logD [2] | inhibition at 3 µM (CYP2C9) [%] | microsomal CLint [3] [µL/min/mg] | pKa [4] | SMILES
1 | 111 | – | – | – | – | N#Cc1cc(Cl)ccc1NS(=O)(=O)c1ccccc1C(F)(F)F
2 | 89 | 1.3 | 18 | < 8 | – | COc1cncc(NS(=O)(=O)c2ccccc2C(F)(F)F)c1
3 | 484 | – | – | – | – | O=S(=O)(Nc1ccc(F)c(C(F)(F)F)c1)c1ccccc1C(F)(F)F
4 | 18 | 2.3 | 76 | < 12 | 5.8 | N#Cc1cc(NS(=O)(=O)c2ccccc2C(F)(F)F)ccc1Cl
5 | 3920 | – | – | – | – | COc1ncccc1NS(=O)(=O)c1ccccc1C(F)(F)F
6 | 3610 | 2.4 | 15 | – | – | O=S(=O)(Nc1ccccc1F)c1ccccc1C(F)(F)F
7 | 1030 | – | – | – | – | Cc1ccc(NS(=O)(=O)c2ccccc2C(F)(F)F)cn1
8 | 1170 | – | – | – | – | COc1ccc(NS(=O)(=O)c2ccccc2C(F)(F)F)cn1
9 | 187 | – | – | – | – | N#Cc1ccc(Cl)cc1NS(=O)(=O)c1ccccc1C(F)(F)F
10 | > 10000 | – | – | – | – | COc1ccncc1NS(=O)(=O)c1ccccc1C(F)(F)F
11 | 81 | – | – | – | – | N#Cc1cc(NS(=O)(=O)c2ccccc2Cl)ccc1Cl
12 | 616 | 0.8 | 11 | 19 | – | N#Cc1ccccc1NS(=O)(=O)c1ccccc1C(F)(F)F
13 | 127 | – | – | – | – | N#Cc1cc(NS(=O)(=O)c2ccccc2C#N)ccc1Cl
14 | 183 | – | – | – | – | Cc1ccccc1S(=O)(=O)Nc1ccc(Cl)c(C#N)c1
15 | 119 | – | – | – | – | N#Cc1ccc(NS(=O)(=O)c2ccccc2C(F)(F)F)cc1
16 | 20 | – | – | – | – | N#Cc1cc(NS(=O)(=O)c2ccccc2OC(F)(F)F)ccc1Cl
17 | 71 | – | – | – | – | N#Cc1ccc(Cl)c(NS(=O)(=O)c2ccccc2C(F)(F)F)c1
18 | 1970 | – | – | – | – | O=S(=O)(Nc1ccc(F)c(F)c1)c1ccccc1C(F)(F)F
19 | > 10000 | – | – | – | – | Cc1ccncc1NS(=O)(=O)c1ccccc1C(F)(F)F
20 | 1970 | – | – | – | – | O=S(=O)(Nc1ccccc1OC(F)F)c1ccccc1C(F)(F)F
21 | 1480 | 3.9 | 81 | 55 | – | O=S(=O)(Nc1cccc(OC(F)(F)F)c1)c1ccccc1C(F)(F)F
22 | 166 | 1.9 | 28 | < 8 | – | N#Cc1cccc(NS(=O)(=O)c2ccccc2C(F)(F)F)c1
23 | 7 | 2.5 | 39 | 153 | – | O=S(=O)(Nc1cnc2ccccc2c1)c1ccccc1C(F)(F)F
24 | 32 | 2 | 86 | 18 | 5.1 | N#Cc1cc(NS(=O)(=O)c2ccccc2C(F)(F)F)ccc1C(F)(F)F
25 | 23 | 1 | 86 | 30 | – | N#Cc1c(Cl)cccc1NS(=O)(=O)c1ccccc1C(F)(F)F
26 | 39 | 1.1 | 82 | 14 | – | N#Cc1ccc(NS(=O)(=O)c2ccccc2C(F)(F)F)c(Cl)c1
27 | 185 | – | – | – | – | Cc1cncc(NS(=O)(=O)c2ccccc2C(F)(F)F)c1
28 | 35 | 1.6 | 38 | 14 | 5.3 | O=S(=O)(Nc1cncc(Br)c1)c1ccccc1C(F)(F)F

Row | SMILES | IC50 [1] [nM] | logD [2] | inhibition at 3 µM (CYP2C9) [%] | microsomal CLint [3] [µL/min/mg] | pKa [4]
29 | N#Cc1ccc(NS(=O)(=O)c2ccccc2C(F)(F)F)cc1C(F)(F)F | 29 | 1.8 | 61 | < 12 | –
30 | N#Cc1ccc(NS(=O)(=O)c2ccccc2C(F)(F)F)cc1Cl | 18 | 1.8 | 92 | 11 | 5.1
31 | COc1ccccc1S(=O)(=O)Nc1ccc(C#N)c(Cl)c1 | 199 | – | – | – | –
32 | N#Cc1ccc(NS(=O)(=O)c2ccccc2C#N)cc1Cl | 156 | – | – | – | –
33 | N#Cc1ccc(NS(=O)(=O)c2ccccc2Cl)cc1Cl | 81 | – | – | – | –
34 | Cc1ccccc1S(=O)(=O)Nc1ccc(C#N)c(Cl)c1 | 89 | – | – | – | –
